Data set [1] deals with pentylenetetrazole convulsions. Kind of data set: Pentylenetetrazol Infusion (Mouse). Format: in vivo. The conditions noted are these: for ED50: 1 h, po, read-out: ED50 Pentylenetetrazole Mouse (infusion); for antagonism of all the excitatory signs induced by pentylenetetrazol: clonic and tonic convulsions and lethality, result in words. An excerpt: (§1) There were at least 3 animals per
^4 Pentylenetetrazol Infusion (Mouse) - The procedure originally
described by Orloff, M. H. et al., Proc. Soc. Exp. Biol. 70:254 (1949) an
adopted by our laboratories was used.

Data set [2] concerns pentylenetetrazole lethality. Kind of data set: Pentylenetetrazol Standard Dose, mouse. The conditions noted are these: for effectiveness against pentylenetetrazole: result in words, species not given; for ED50: 1 h, mouse, po, pentylenetetrazol 125 mg/kg ip, prevention of lethality (footnote 5). Type of data set: in vivo.
Excerpt: as §1
(§2) Prevention of lethality was used as criterion for […]

Data set [3] has as its system tonic convulsions induced by maximal electroshock. Kind of data set: Maximal Electroshock Test, mouse. The conditions noted are these: for ED50: 1 h, po, read-out: ED50 Maximal Electroshock Mouse; for blocking of tonic convulsions induced by maximal electroshock: result in words, species not given. Format: in vivo. As for the experimental part: (§3) ^1 Test compounds including reference agents were administered orally
(§4) either as water solutions or as fine suspensions in Tween by gastric
(§5) intubation 60 min prior to the test. There were at least 3 animals per
(§6) ^2 Maximal Electroshock Test - Animals were subjected to an 80mA shoc
(§7) of 0.5 sec duration by a means of corneal electrodes using the specially
(§8) designed apparatus manufactured by Wahlquist Instrument Co. Prevention of
(§9) tonic extension by hind limbs was used as a criterion for drug effect.

For data set [4] the test system is unchanged. Kind of data set: Maximal Electroshock Test, rat. Type of data set: in vivo. To be noted: 1 h, po, read-out: ED50 Maximal Electroshock Rat. As for the experimental part: as §3, §4, §5, §6, §7, §8, §9
Data set [5] can be described thus: in vivo. The conditions noted are these: mouse, po, 24 hours observation.
Excerpt: hours following drug administration.
Data set [6] concerns pentylenetetrazole lethality. Kind of data set: Pentylenetetrazol Standard Dose, rat. Format: in vivo. The conditions noted are these: 1 h, po, pentylenetetrazol 125 mg/kg ip, prevention of lethality (footnote 5).
Excerpt: as §1, §2

Data set [7] concerns audiogenic seizures. Kind of data set: Audiogenic Seizures, mouse. To be noted: for blocking of tonic convulsions induced by audiogenic seizures: result in words; for ED50: 1 h, po, read-out: ED50 Audiogenic Seizure Mouse. Type of data set: in vivo. As for the experimental part: as §3, §4, §5
^3 Audiogenic Seizures - Mice, which were genetically bred for the
susceptability to sound induced seizures (O'Grady Farms) were placed into
the sound attenuated box and exposed to a 120 sec sound stimulus of 85 db
and 10,000 c/sec frequincy. Prevention of tonic extension of hind limbs
was used as a criterion for drug effect.

Data set [8] can be described thus: Effect on aortic blood pressure in the ouabain-arrhythmia anesthetized dog. To be noted: iv; for effect on aortic blood pressure: result in words. Format: in vivo. As to the method: (§10) Anesthetized dogs were used for the production of ouabain-induced ventricular arrhythmias. The arrhythmia consisted of a nodal or ventricular tachycardia. The procedure used to establish the arrhythmia as well as the criteria employed to determine anti-arrhythmic activity generally was that employed by Lucchesi et al. ^1
Anti-arrhythmic activity of the compounds was determined by rapid intravenous injection and compared to lidocaine, disopyramide and aprindine The average prolonged reversion doses are shown below: […]

The subject of data set [9] is ouabain-induced ventricular arrhythmias. Kind of data set: Reversion of ouabain-induced arrhythmia in anesthetized dogs. Type of data set: in vivo, dog. To be noted: for ED100: Canis lupus familiaris, 0.5 h, read-out: I. V. Reverting Dose. As for the experimental part:
The compounds were also tested in dogs for their reversion activity in ouabain-induced arrhythmia.
as §10
1. Lucchesi, B. L. and H. F. Hardman: The influence of dichloroisoproterenol (DCI) and related compounds upon ouabain and acetylstrophanthidin induced cardiac arrhythmias.

[10] abbreviates: mouse, pentylenetetrazol infusion (footnote 4).
[11] abbreviates: mouse, 60 min prior to test, prevention of tonic extension of hind limbs.
Setting [12] is: rat, 60 min prior to test, prevention of tonic extension of hind limbs.
Setting [13] is: anesthetized dog, rapid intravenous injection, IV ED100, normal sinoatrial rhythm for greater than 30 mins.
Setting [14] is: mouse, 60 min prior to test, prevention of tonic extension.

Structures can show the parent of a compound that is named as a salt. Where two headings read alike, the source gives them in different places.

On to `NC[C@@H]1Oc2ccc(Cl)cc2[C@H](c2ccccc2)O1` (relative stereo) [BL-3069], for which the 50% effective dose (ED50) was 12 mg/kg in [1] (setting [10]), 25 mg/kg in data set [3] (setting [11]), > 20 mg/kg in data set [4] (setting [12]) and > 40 mg/kg in [6]. Also, in data set [2], the effectiveness against pentylenetetrazole entry is “practically ineffective”. In addition, the “blocking of tonic convulsions induced by maximal electroshock” value (“blocking … by maximal electroshock” below) in data set [3] is reported as “effective blocking agents of tonic convulsions”. This compound had an LD50 at 24 h in data set [5] of 300 mg/kg. Further, in data set [7], the “blocking of tonic convulsions induced by audiogenic seizures” value (“blocking … by audiogenic seizures” below) is given as “effective blocking agents of tonic convulsions”.

With `CNC[C@@H]1Oc2ccc(Cl)cc2[C@@H](c2ccccc2)O1` (relative stereo) [BL-3100], the “Decrease in mean aortic pressure” value in data set [8] turned out to be 50 mmHg. In addition, in data set [9] (setting [13]), the ED100 is > 10 mg/kg.

On to `CNC(=O)[C@@H]1Oc2ccc(Cl)cc2[C@@H](c2ccccc2)O1` (relative stereo) [BL-3167], for which the ED100 in data set [9] (setting [13]) is > 10 mg/kg.

Turning to `CNC[C@H]1Oc2ccc(Cl)cc2[C@@H](c2ccccc2)O1.Cl` (relative stereo) [BL-3168, cis-6-Chloro-2-methylaminomethyl-4-phenyl-1,3-benzodioxan hydrochloride], the “Decrease in mean aortic pressure” value in data set [8] was determined as 20 mmHg. Besides, the ED50 was 5 mg/kg in data set [1] (setting [10]); > 50 mg/kg in data set [2]; 10 mg/kg in [3] (setting [11]); 15 mg/kg in [4] (setting [12]); > 40 mg/kg in [6]; 2.5 mg/kg in [7] (setting [14]). Further, in data set [2], the effectiveness against pentylenetetrazole entry is on record as “practically ineffective”. The “blocking … by maximal electroshock” value in [3] was “effective blocking agents of tonic convulsions”. Besides, the 50% lethal dose (LD50) at 24 h in data set [5] was determined as 300 mg/kg. The ED100 in data set [9] (setting [13]) was > 10 mg/kg. For the same compound, the “blocking … by audiogenic seizures” value in data set [7] is recorded as “effective blocking agents of tonic convulsions”.

Consider `CC(C)NC(=O)[C@@H]1Oc2ccc(Cl)cc2[C@@H](c2ccccc2)O1` (relative stereo) [BL-3374], for which, in [9] (setting [13]), the ED100 was > 10 mg/kg.

Consider `CC(C)NC[C@@H]1Oc2ccc(Cl)cc2[C@@H](c2ccccc2)O1` (relative stereo) [BL-3379], for which the ED100 in data set [9] (setting [13]) was > 10 mg/kg.

Consider `CC(C)NC[C@@H]1Oc2ccccc2[C@@H](c2ccccc2)O1` (relative stereo) [BL-3394], for which, in [8], the “effect on aortic blood pressure” value is “gressive fall in aortic”. Moreover, the ED100 in data set [9] (setting [13]) was ~10 mg/kg.

Turning to `CC(C)NC[C@@H]1Oc2ccc(Cl)cc2[C@H](c2ccccc2)O1` (relative stereo) [BL-3396, cis-6-Chloro-4-phenyl-2-(2-propylaminomethyl)-1,3-benzodioxan hydrochloride], the median effective dose (ED50) in data set [1] (setting [10]) is 3 mg/kg; in data set [2], > 50 mg/kg; in [3] (setting [11]), 10 mg/kg; in [4] (setting [12]), 10 mg/kg; in data set [6], > 40 mg/kg; in data set [7] (setting [14]), 2.5 mg/kg. In addition, in data set [5], the LD50 at 24 h turned out to be 400 mg/kg.

For the compound `CC(C)NC[C@@H]1Oc2ccccc2[C@H](c2ccccc2)O1` (relative stereo) [BL-3418], in data set [9] (setting [13]), the ED100 lay in the range of 3 to 5 mg/kg.

For `CC(C)NC[C@H]1Oc2ccc(Cl)cc2[C@H](c2ccccc2F)O1.Cl` (relative stereo) [BL-3681A, trans-6-Chloro-4-(2-fluorophenyl)-2-(2-propylaminomethyl)-1,3-benzodioxan hydrochloride], the 50% effective dose (ED50) was 12 mg/kg in data set [1] (setting [10]); > 50 mg/kg in [2]; 12 mg/kg in data set [3] (setting [11]); 15 mg/kg in data set [4] (setting [12]); > 40 mg/kg in data set [6]; 10 mg/kg in data set [7] (setting [14]). Further, the effectiveness against pentylenetetrazole result in data set [2] is “practically ineffective”. In data set [3], the “blocking … by maximal electroshock” value is recorded as “effective blocking agents of tonic convulsions”. For the same compound, the median lethal dose (LD50) at 24 h in [5] amounted to 300 mg/kg. The “blocking … by audiogenic seizures” value in [7] is listed as “effective blocking agents of tonic convulsions”.

Consider `CNC(=O)[C@@H]1Oc2ccc(Cl)cc2[C@H](c2ccccc2)O1` (relative stereo) [BL-4093], for which, in data set [9] (setting [13]), the ED100 is > 10 mg/kg.

Consider `CN(C)CCCNC(=O)[C@H]1Oc2ccc(Cl)cc2[C@H](c2ccccc2)O1.Cl` (relative stereo) [BL-4932A, trans-6-Chloro-4-phenyl-N-(3-dimethylaminopropyl)-1,3-benzodioxan-2-carboxamide hydrochloride], for which the “transient fall in aortic blood pressure” value in [8] (at 10 mg/kg (N=2)) came to 50 mmHg. In addition, the Transient reversion at in data set [9] (anesthetized dog, iv, transient reversion only (N=2)) is 10 mg/kg.

Consider `CN(C)CCCNC(=O)[C@H]1Oc2ccc(Cl)cc2[C@@H](c2ccccc2)O1.Cl` (relative stereo) [BL-4971A, cis-6-Chloro-4-phenyl-N-(3-dimethylaminopropyl)1,3-benzodioxan-2-carboxamide hydrochloride], for which the “effect on aortic blood pressure” value in data set [8] is “No appreciable effect”. The ED100 in [9] (setting [13]) is 5 mg/kg.

As to `CN(C)CCCNC(=O)[C@H]1Oc2ccccc2[C@@H](c2ccccc2)O1.Cl` (relative stereo) [BL-4981A, cis-4-Phenyl-N-(3-dimethylaminopropyl)-1,3-benzodioxan-2-carboxamide hydrochloride], the ED100 in data set [9] (setting [13]) is > 10 mg/kg.

With `CCN(CC)CCCN(c1ccccc1)C1Cc2ccccc2C1` [Aprindine, reference compound], in data set [9] (setting [13]), the ED100 stood at 2.46 ± 0.83 mg/kg.

For `CN1C(=O)CN=C(c2ccccc2)c2cc(Cl)ccc21` [Diazepam, reference compound], the “antagonism of all the excitatory signs induced by pentylenetetrazol” value (shortened to “antagonism”) in data set [1] is reported as “able to antagonize all the excitatory signs”. In addition, the 50% effective dose (ED50) was found to be 6 mg/kg in [3] (Mus musculus), 10 mg/kg in [4] (Rattus norvegicus) and 0.5 mg/kg in [7] (Mus musculus).

As for `O=C1NC(=O)C(c2ccccc2)(c2ccccc2)N1` [Diphenylhydantoin Na, reference compound], the ED50 in data set [1] (setting [10]) is 20 mg/kg; in [2] it was > 50 mg/kg; in data set [3] (setting [11]), 10 mg/kg; in data set [4] (setting [12]), 30 mg/kg; in data set [6], 40 mg/kg; in [7] (setting [14]), 10 mg/kg.

Consider `CC(C)N(CCC(C(N)=O)(c1ccccc1)c1ccccn1)C(C)C` (centres unmarked) [Disopyramide, reference compound], for which the ED100 in [9] (setting [13]) was found to be 4.5 ± 1.3 mg/kg.

With `CCN(CC)CC(=O)Nc1c(C)cccc1C` [Lidocaine, reference compound], the ED100 in data set [9] (iv) worked out at 6.4 ± 1.4 mg/kg.

Take `CCC1(c2ccccc2)C(=O)NC(=O)NC1=O` [Phenobarbital Na, reference compound]: the ED50 was 8 mg/kg in data set [1] (Mus musculus); 15 mg/kg in [2]; 10 mg/kg in data set [3] (Mus musculus); 8 mg/kg in data set [4] (Rattus norvegicus); 20 mg/kg in [6]; 2.5 mg/kg in data set [7] (Mus musculus). In addition, the “antagonism” value in data set [1] is “able to antagonize all the excitatory signs”. Moreover, in data set [5], the LD50 at 24 h turned out to be 265 mg/kg.

As to `CN1C(=O)OC(C)(C)C1=O` [Trimethadione, reference compound], the median effective dose (ED50) in data set [1] (setting [10]) was 200 mg/kg; in [2], 400 mg/kg; in [3] (setting [11]) it was > 400 mg/kg; in [4] (setting [12]) it was 300 mg/kg; in data set [6], 100 mg/kg; in [7] (setting [14]), 150 mg/kg. In addition, the “antagonism” value in data set [1] is recorded as “able to antagonize all the excitatory signs”. In addition, the LD50 at 24 h in [5] came out at 2170 mg/kg.

These data come from patent US4056540A, “4-Phenyl-1,3-benzodioxans” (Bristol-Myers Company, priority 1975, dated 1977).
